Experimental data from ChEMBL document CHEMBL4680377, “Discovery of a Novel Series of Pyridone-Based EP3 Antagonists for the Treatment of Type 2 Diabetes” (ACS Med Chem Lett, 2021).
Converted amounts (≈) assume the structure as drawn.

How the values were obtained:
[1] = Kinetic solubility of compound at pH 2; type: physicochemical; details: buffer, read-out: Kinetic_solubility
[2] = Kinetic solubility of compound in PBS buffer; type: physicochemical; details: read-out: Kinetic_solubility
[3] = Metabolic stability in human liver microsomes assessed as intrinsic clearance half life; type: ADME, Microsome
[4] = Metabolic stability in rat liver microsomes assessed as intrinsic clearance half life; type: ADME, Microsome
[5] = Apparent permeability across apical to basolateral side in dog MDCK cells; type: ADME, cell-based, Canis lupus familiaris
[6] = molecular target: T1, Prostaglandin E2 receptor EP3 subtype (Homo sapiens, UniProt P43115); experiment: Displacement of [3H]-PGE2 from human EP3 expressed in Chem-1 cell membranes incubated for 2 hrs by TopCount scintillation plate reader analysis; set-up: species or system Membrane
T1 sequence (P43115 whole entry): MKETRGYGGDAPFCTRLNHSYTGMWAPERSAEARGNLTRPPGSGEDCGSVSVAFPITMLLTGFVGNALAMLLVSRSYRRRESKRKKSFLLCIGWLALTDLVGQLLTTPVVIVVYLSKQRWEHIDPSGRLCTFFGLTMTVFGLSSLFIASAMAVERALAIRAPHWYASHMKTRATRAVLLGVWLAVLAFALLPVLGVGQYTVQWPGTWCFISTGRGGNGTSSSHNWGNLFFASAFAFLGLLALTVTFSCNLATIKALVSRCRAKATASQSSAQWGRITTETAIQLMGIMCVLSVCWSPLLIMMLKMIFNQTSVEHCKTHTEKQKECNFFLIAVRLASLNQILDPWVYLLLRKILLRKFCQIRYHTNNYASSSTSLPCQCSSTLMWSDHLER

[7] = molecular target: T1, Prostaglandin E2 receptor EP3 subtype; experiment: Antagonist activity at human EP3 expressed in CHO cells assessed as suppression of sulprostone-induced inhibition of forskolin induced cAMP production measured after 30 mins by HTR-FRET assay; type: functional, cell-based

SMILES | solubility kinetic [1] | solubility kinetic [2] | half-life [3] | half-life [4] | Papp A→B [5] | Ki [6] | IC50 [7]
O=C1NC(=O)/C(=C/C(c2ccc(-c3ccc4cccc(F)c4c3)[nH]c2=O)C2CC2)O1 (configuration not stated) | 3.85 µM (≈ 1.56 µg/mL) | 30.8 µM (≈ 12.5 µg/mL) | 1.98 h | > 3 h | – | – | –
CC(C)C(c1ccc(-c2ccc3cccc(F)c3c2)[nH]c1=O)C1NC(=O)NC1=O (configuration not stated) | 5.8 µM (≈ 2.28 µg/mL) | 10.6 µM (≈ 4.17 µg/mL) | 0.578 h | 0.145 h | – | – | –
CCC(CC)C(/C=C1\OC(=O)NC1=O)c1ccc(-c2ccc3cccc(F)c3c2)[nH]c1=O (configuration not stated) | 3.68 µM (≈ 1.6 µg/mL) | 33.7 µM (≈ 14.6 µg/mL) | > 3 h | > 3 h | – | – | –
CC(C)C(CC1C(=O)NC(=O)N1C)c1ccc(-c2ccc3cccc(F)c3c2)[nH]c1=O (configuration not stated) | 26.6 µM (≈ 11.2 µg/mL) | 33.6 µM (≈ 14.2 µg/mL) | 0.153 h | < 0.0667 h | 17.6 ×10⁻⁶ cm/s | – | –
CCn1ncc2cc(C)c(-c3ccc(C(/C=C4\OC(=O)NC4=O)(CC)CC)c(=O)[nH]3)cc21 | – | – | – | – | – | 5.7 µM | > 20 µM
CCn1ncc2c(F)c(-c3ccc(C(/C=C4\OC(=O)NC4=O)(CC)CC)c(=O)[nH]3)ccc21 | – | – | – | – | – | 1.3 µM | > 20 µM
CCN1CCOc2ccc(-c3ccc(C(/C=C4\OC(=O)NC4=O)(CC)CC)c(=O)[nH]3)cc21 | 21 µM (≈ 9.19 µg/mL) | 24.1 µM (≈ 10.5 µg/mL) | 0.972 h | 1.51 h | – | – | –
CCn1ncc2cc(F)c(-c3ccc(C(/C=C4\OC(=O)NC4=O)(CC)CC)c(=O)[nH]3)cc21 | – | – | – | – | – | 0.12 µM | –
CCC(/C=C1\OC(=O)NC1=O)(CC)c1ccc(-c2ccc3c(F)cc(F)cc3c2)[nH]c1=O | – | – | – | – | – | 0.29 µM | –
CCC(/C=C1\OC(=O)NC1=O)(CC)c1ccc(-c2ccc3cccc(C(F)(F)F)c3c2)[nH]c1=O | – | – | 0.353 h | 1.09 h | – | – | –
CC(C)[C@@H](/C=C1\OC(=O)NC1=O)c1ccc(-c2ccc3cccc(F)c3c2)[nH]c1=O | 4.62 µM (≈ 1.88 µg/mL) | 26.4 µM (≈ 10.7 µg/mL) | > 3 h | > 3 h | – | – | –
O=C1NC(=O)/C(=C/C2(c3ccc(-c4ccc5cccc(F)c5c4)[nH]c3=O)CCCC2)O1 | 2.55 µM (≈ 1.07 µg/mL) | 24.5 µM (≈ 10.3 µg/mL) | > 3 h | > 3 h | – | – | –
CC(C)C(CC1NC(=O)NC1=O)c1ccc(-c2ccc3cccc(F)c3c2)[nH]c1=O (configuration not stated) | 13 µM (≈ 5.3 µg/mL) | 12.3 µM (≈ 5.01 µg/mL) | 1.59 h | 0.35 h | 17.1 ×10⁻⁶ cm/s | – | –
CC(C)C(/C=C1\SC(=O)NC1=O)c1ccc(-c2ccc3cccc(F)c3c2)[nH]c1=O (configuration not stated) | 4.8 µM (≈ 2.03 µg/mL) | 25.6 µM (≈ 10.8 µg/mL) | > 3 h | 2.62 h | 15.4 ×10⁻⁶ cm/s | – | –
CC(C)/C(=C1/OC(=O)NC1=O)c1ccc(-c2ccc3cccc(F)c3c2)[nH]c1=O | – | – | > 3 h | > 3 h | – | 0.14 µM | 1.3 µM
CCn1cc2c(F)c(-c3ccc(C(/C=C4\OC(=O)NC4=O)(CC)CC)c(=O)[nH]3)ccc2n1 | – | – | – | – | – | > 10 µM | > 20 µM
CC(C)/C(=C1\NC(=O)OC1=O)c1ccc(-c2ccc3cccc(F)c3c2)[nH]c1=O | – | – | > 3 h | > 3 h | – | – | –
O=C1NC(=O)/C(=C/C(c2ccc(-c3ccc4cccc(F)c4c3)[nH]c2=O)C2CCCCC2)O1 (configuration not stated) | – | – | 1.09 h | 2.39 h | – | – | –
CCC(/C=C1\OC(=O)NC1=O)(CC)c1ccc(-c2ccc3cc(F)cc(F)c3c2)[nH]c1=O | – | – | > 3 h | > 3 h | – | 0.028 µM | 0.045 µM
CC(C)C(c1ccc(-c2ccc3cccc(F)c3c2)[nH]c1=O)C1C(=O)NC(=O)N1C (configuration not stated) | 13.6 µM (≈ 5.54 µg/mL) | 17.9 µM (≈ 7.29 µg/mL) | 0.375 h | 0.263 h | – | – | –

SMILES | solubility kinetic [1] | solubility kinetic [2] | half-life [3] | half-life [4] | Papp A→B [5] | Ki [6] | IC50 [7]
CC(C)[C@H](/C=C1\OC(=O)NC1=O)c1ccc(-c2ccc3cccc(F)c3c2)[nH]c1=O | 10.8 µM (≈ 4.39 µg/mL) | 25.4 µM (≈ 10.3 µg/mL) | > 3 h | > 3 h | – | – | –
O=C1NC(=O)/C(=C/C(Cc2ccccc2)c2ccc(-c3ccc4cccc(F)c4c3)[nH]c2=O)O1 (configuration not stated) | 0.9 µM (≈ 0.409 µg/mL) | 9.1 µM (≈ 4.14 µg/mL) | 1.3 h | 2.96 h | – | – | –
CC(C)C(c1ccc(-c2ccc3cccc(F)c3c2)[nH]c1=O)C1SC(=O)NC1=O (configuration not stated) | 11.3 µM (≈ 4.64 µg/mL) | 20.1 µM (≈ 8.25 µg/mL) | 1.87 h | 0.76 h | 26.3 ×10⁻⁶ cm/s | – | –
CC(C)[C@@H](C[C@H]1SC(=O)NC1=O)c1ccc(-c2ccc3cccc(F)c3c2)[nH]c1=O (relative stereo) | 12.2 µM (≈ 5.18 µg/mL) | 23.9 µM (≈ 10.1 µg/mL) | 1.24 h | 0.77 h | 25.5 ×10⁻⁶ cm/s | – | –
O=C1NC(=O)/C(=C/C(c2ccc(-c3ccc4cccc(F)c4c3)[nH]c2=O)C2CCCC2)O1 (configuration not stated) | – | – | 1.21 h | > 3 h | – | – | –
CC(C)C(/C=C1\OC(=O)NC1=O)c1cc(Cl)c(-c2ccc3cccc(F)c3c2)[nH]c1=O (configuration not stated) | 3.2 µM (≈ 1.41 µg/mL) | 21.5 µM (≈ 9.48 µg/mL) | > 3 h | > 3 h | – | – | –
O=C1NC(=O)/C(=C/C2(c3ccc(-c4ccc5cccc(F)c5c4)[nH]c3=O)CC2)O1 | 27.4 µM (≈ 10.7 µg/mL) | 33.4 µM (≈ 13 µg/mL) | 2.48 h | > 3 h | – | 0.028 µM | 0.055 µM
CCC(/C=C1\OC(=O)NC1=O)(CC)c1ccc(-c2ccc3cccc(C(C)C)c3c2)[nH]c1=O | – | – | 0.758 h | 1.88 h | – | 0.12 µM | –
CCn1nc(C)c2ccc(-c3ccc(C(/C=C4\OC(=O)NC4=O)(CC)CC)c(=O)[nH]3)cc21 | – | – | – | – | – | 0.27 µM | 18 µM
CC(C)C(/C=C1\NC(=O)NC1=O)c1ccc(-c2ccc3cccc(F)c3c2)[nH]c1=O (configuration not stated) | 7.5 µM (≈ 3.04 µg/mL) | 10.7 µM (≈ 4.34 µg/mL) | > 3 h | 1.46 h | 12.3 ×10⁻⁶ cm/s | – | –
CC(C)/C(=C1/SC(=O)NC1=O)c1ccc(-c2ccc3cccc(F)c3c2)[nH]c1=O | 9.2 µM (≈ 3.76 µg/mL) | 23.3 µM (≈ 9.52 µg/mL) | > 3 h | > 3 h | 22.9 ×10⁻⁶ cm/s | – | –
Cc1cc(C(/C=C2\OC(=O)NC2=O)C(C)C)c(=O)[nH]c1-c1ccc2cccc(F)c2c1 (configuration not stated) | 39.4 µM (≈ 16.6 µg/mL) | 35.7 µM (≈ 15 µg/mL) | > 3 h | > 3 h | – | – | –
CC(C)[C@H](C[C@H]1SC(=O)NC1=O)c1ccc(-c2ccc3cccc(F)c3c2)[nH]c1=O (relative stereo) | 4.9 µM (≈ 2.08 µg/mL) | 31.2 µM (≈ 13.2 µg/mL) | 0.67 h | 0.143 h | 17.6 ×10⁻⁶ cm/s | – | –
O=C1NC(=O)/C(=C/C(c2ccccc2)c2ccc(-c3ccc4cccc(F)c4c3)[nH]c2=O)O1 (configuration not stated) | 15.4 µM (≈ 6.78 µg/mL) | 32.8 µM (≈ 14.4 µg/mL) | 2.1 h | > 3 h | – | – | –
CC(C)C(/C=C1/C(=O)NC(=O)N1C)c1ccc(-c2ccc3cccc(F)c3c2)[nH]c1=O (configuration not stated) | 8.3 µM (≈ 3.48 µg/mL) | 34.8 µM (≈ 14.6 µg/mL) | > 3 h | 1.08 h | 14.1 ×10⁻⁶ cm/s | – | –
CC(C)C1(c2ccc(-c3ccc4ccccc4c3)[nH]c2=O)OC(O)=NC1=O (configuration not stated) | – | – | – | – | – | – | 0.068 µM
CCc1cccc2ccc(-c3ccc(C(/C=C4\OC(=O)NC4=O)(CC)CC)c(=O)[nH]3)cc12 | – | – | 0.178 h | 1.77 h | – | – | –
CCC(/C=C1\OC(=O)NC1=O)(CC)c1ccc(-c2ccc3c(c2)OC(C)(C)CC3)[nH]c1=O | – | – | – | – | – | 2.6 µM | > 20 µM
CC(C)(/C=C1\OC(=O)NC1=O)c1ccc(-c2ccc3cccc(F)c3c2)[nH]c1=O | 1.66 µM (≈ 0.651 µg/mL) | 36.1 µM (≈ 14.2 µg/mL) | 1.89 h | > 3 h | – | – | –
